Results published in US20110092433A1, “FGF9-RELATED METHODS FOR TREATING ANXIETY” (THE BOARD OF TRUSTEES OF THE LELAND STANFORD JUNIOR …, priority 2007, published 2011).

Columns and labels:
Rodents [1] = assay: Elevated plus maze (EPM) after microinjection; format: in vivo; settings: for time in the center quadrant of EPM / time in the closed arms of EPM / time in the open arms of EPM: acute microinjection, versus controls
Description: (§1) This is also in the same direction as the FGF2 data, consistent with the fact that both FGF2 and NCAM interact with the FGF receptor.
(§2) These observations are nevertheless consistent with the conclusions drawn from the microinjection studies above.

Rodents [2] = assay: Forced swim test (FST) after microinjection; format: in vivo; settings: acute microinjection, versus controls
Description: as §1, §2

[3] = system: hippocampal gene expression; assay: Hippocampal gene expression in adults after early postnatal FGF2 (histochemical and RNA expression assays); format: in vivo, rat; settings: adult rats, FGF2 20 ng/g s.c. the day after birth
Description: (§3) Methods. Sprague-Dawley rats were injected with either vehicle or FGF2 (20 ng/g, s.c.) the day after birth and sacrificed after Morris water maze testing as adults. We assessed changes in gene expression using both a candidate approach and a gene discovery approach with laser-capture microdissection of the dentate gyrus followed by microarray analyses.

[4] = system: FGFR2 and FGFR3 exon IIIc:IIIb splice variant ratio; assay: Real time RT-PCR of exon IIIc:IIIb splice variant ratio in frontal cortex; format: in vivo, rat; settings: FGF2 5 ng/g i.p. every 48 hours for three weeks, NS or S group, P>0.1
Description: Animals. Twenty-four male Sprague-Dawley rats weighing 220-250g were ordered from Charles River (Wilmington, Mass.) and remained undisturbed for one week to acclimatize to housing conditions. The animals were housed in pairs on a 12 h light-dark cycle (lights on 6:00 A.M.) with food and water available ad libitum. All experiments were conducted in accordance with the NIH Guide for the Care and Use of Animals and the University Committee on the Use and Care of Animals.
FGF2 injection treatments and chronic unpredictable stress (CUS) conditions. […]
Total RNA extraction. […] Using the Bioanalyzer's concentration readings, the samples were normalized to 25 ng/μL of total RNA per subject and stored at −80° C.
cDNA synthesis. cDNA was synthesized using the iScript cDNA Synthesis Kit (Bio-Rad, Hercules, Calif.). […] The double-stranded cDNA solutions were then analyzed for quality and concentration using Invitrogen's Quant-iT PicoGreen dsDNA kit. […] The fluorescently labeled samples were analyzed with a 1420 Victor^2 Multilabel Counter (EG&G Wallac, Wellesley, Mass.) using the basic Fluorescein protocol. […]
Real time RT-PCR primer design. […] Exon sequences were analyzed using NCBI's nucleotide and protein BLAST and were matched with their corresponding protein products within the receptor structures (FIG. 11). […]

Sprague-Dawley rats [5] = assay: Forced swim testing after chronic FGF2; format: in vivo, rat; settings: chronic FGF2 administration
Description: FGF2 injection treatments and chronic unpredictable stress (CUS) conditions. Half of the rats (n=12) were administered vehicle (0.1M PBS with 100 μg/mL bovine serum albumin), and the other half (n=12) were administered human recombinant FGF2 dissolved in vehicle in 5 ng/g dosages (Sigma, St. Louis, Mo.) every 48 hours for three weeks. All treatments were injected intra-peritonealy. During the same three week period as the FGF2 treatments, the vehicle group was either handled (n=6) or exposed to CUS (n=6). Likewise, the FGF2 injected group was either handled (n=6) or exposed to CUS (n=6). The animals were exposed to the following chronic unpredictable stressors (described in Isgor et al. (2004)): ether (30 s), cold (2 h), noise (15 m), isolation (24 h), or restraint (2 h). The stressors were randomized to avoid habituation; sessions occurred once each day in either the morning or afternoon. The 2×2 (condition by treatment) design divided the subjects into nonstressed/vehicle (NS/V), nonstressed/FGF2 injection (NS/F), stressed/vehicle (S/V), and stressed/FGF2 injection (S/F) groups.
Forced swim testing. To test for possible FGF2 injection effects on anti-depressant behavior for other studies, all animals were subjected to forced swim testing according to Lucki (1997) 24 h after the termination of the FGF2 treatments and CUS conditions.

Sprague-Dawley rats [6] = assay: Morris water maze in adults after early postnatal FGF2; format: in vivo, rat; settings: FGF2 20 ng/g s.c. the day after birth, tested as adults
Description: as §3

rats = assay: Elevated plus-maze (EPM) and light-dark (LD) anxiety test after chronic FGF2; format: in vivo, rat; settings: FGF2 5 ng/g i.p. every 48 hours for 3 weeks
Description: Anxiety disorders have a high comorbidity with other neuropsychiatric disorders including Major Depression (MD). […] Rats were placed into “high anxiety” (LR) or “low anxiety” (HR) groups based on their behavior in a variety of motor and behavioral tests. Both groups of animals were administered either FGF2 (5 ng/g) or vehicle by intraperitoneal injection every 48 hours for 3 weeks. One day after the last FGF2 injection, all animals were tested in the elevated plus-maze (EPM) and light-dark (LD) anxiety test.
The apparatus for the EPM test is constructed of black Plexiglass with […] (70 cm from the floor, 45 cm long, and 12 cm wide). Illumination is provided by a 40-watt desk lamp facing a wall and placed behind one of the closed arms. The scientists put the animal inside the system. Animals that are less anxious spend more time in the open arms whereas animals that are more anxious spend less time in the open arms.
The LD test is conducted in a 30×60×30-cm Plexiglas shuttle box with a translucent cover. Each box is divided into two equal-sized compartments by a wall with a 12 cm-wide open door. One compartment is painted white and brightly illuminated, and the other is painted black with very dim light. The time each rat spends in each compartment is monitored by rows of five photocells located 2.5 cm above the grid floor of each compartment. […]

Row | Substance | time in the center quadrant of EPM (Rodents [1]) | time in the closed arms of EPM (Rodents [1]) | time in the open arms of EPM (Rodents [1]) | depression-like behavior (FST) (Rodents [2]) | immobility in FST (Rodents [2]) | swimming in FST (Rodents [2]) | other results
1 | EVYVVAENQQGKSKA [NCAM] | significantly less time | more time (although not signficantly more time) | less time | less depression-like behavior | less immobility |  | 
2 | FGF2: human recombinant FGF2 (Sigma), fibroblast growth factor 2 |  | significantly more time | less time | less depression-like behavior | less immobility | more swimming | expression of CCK [3]: increased; expression of GAP-43 [3]: increased; expression of NCAM [3]: decreased; expression of Rgs4 [3]: increased; expression of SST [3]: increased; expression of Vgf [3]: increased; expression of trkB [3]: increased; anxiety-like behavior (EPM) (Rodents [1]; acute injection): increased; effect on exon IIIc:IIIb ratio [4]: did not alter; depression-like behavior (Sprague-Dawley rats [5]): decreases depression-like behavior; time to find a hidden platform in Morris Water maze test (average) (Sprague-Dawley rats [6]): 20 s; performance in learning and memory tests (Sprague-Dawley rats [6]; versus vehicle): significantly better; anxiety versus vehicle (rats): less anxious; anxiety-reducing effects in innately more anxious (LR) rats (rats; LR versus HR): more pronounced
3 | HFKDPKRLY [FGF system peptide inhibitor] | significantly more time | less time | equal time | increased depression-like behavior | more immobility | less swimming | climbing in FST (Rodents [2]): significantly less climbing
